Values after ≈ are worked out from the molar mass of the structure shown. Where two headings read alike, the source gives them in different places.

As usually defined, the MIC is the lowest concentration that inhibits growth of the organism.

The test system of data set [1] is A. baumannii N16870. In words: Minimum inhibitory concentration, clinical isolate A. baumannii N16870. Type of data set: cell-based, Acinetobacter baumannii.
In data set [2] the test system is Pseudomonas aeruginosa 19147. In words: Minimum inhibitory concentration, clinical isolate Pseudomonas aeruginosa 19147. Type of data set: cell-based.
Data set [3] deals with A. baumannii N16870. The experiment in a line: Time-kill assay against A. baumannii N16870. Type of data set: cell-based, Acinetobacter baumannii. Particulars: for time-kill antibacterial activity, monotherapy (summary): considerable regrowth except colistin at 48 mg/L. The procedure: (§1) Time-kill studies were conducted for meropenem, colistin and three combinations (Colistin:Meropenem_1:3, Colistin:Meropenem_1:1 and Colistin:Meropenem_3:1) against A. baumannii N16870 and P. aeruginosa 19147. All experiments were performed with an initial inoculum of ˜10^6 CFU/mL in 20 mL of Cation-Adjusted Mueller-Hinton Broth (CAMHB) in 50 mL pyrogen-free and sterile polypropylene tubes. Serial samples (50 μL) were collected at 0, 1, 2, 4, and 24 h for viable counting on nutrient agar plates and the limit of detection was 20 CFU/mL. A ProtoCOL automated colony counter (Synbiosis, Cambridge, United Kingdom) was used to quantify bacteria after 24 h of incubation at 37° C. Bacterial growth was measured after 0, 1, 2, 4 and 24 h of incubation at 37° C. A growth control without antibiotic was also tested.

For data set [4], the system named is P. aeruginosa 19147. The experiment in a line: Time-kill assay against P. aeruginosa 19147. Format: cell-based, Pseudomonas aeruginosa. As to conditions: for time-kill antibacterial activity, monotherapy (summary): considerable regrowth; for complete bacterial killing in time-kill: monotherapy, e.g. 192 mg/L, at 24 h. The procedure: as §1
For data set [5] the following is noted: cited from earlier work.
Setting [6] is: monotherapy 16 mg/L, up to 24 h.

As to colistin, in data set [1], the “minimum inhibitory concentration [MIC]” value was determined as 0.5 µg/mL. Besides, the MIC in data set [2] came out at 0.5 µg/mL. In addition, in data set [3] (monotherapy 16 mg/L), the regrowth in time-kill result was “regrowth was evident in 4 h”. Besides, the time-kill antibacterial effect entry in data set [3] (setting [6]) and in data set [3] (monotherapy 48 mg/L) was “bacterial killing” each time. Moreover, the “time-kill antibacterial activity, monotherapy (summary)” value in data set [3] and in data set [4] was “weak antibacterial activity” each time. In addition, the “complete bacterial killing in time-kill” value in data set [4] is reported as “complete killing could not be achieved”.
With `C[C@@H](O)[C@H]1C(=O)N2C(C(=O)O)=C(S[C@@H]3CN[C@H](C(=O)N(C)C)C3)[C@H](C)[C@H]12` [meropenem], the water solubility entry in data set [5] is “approximately 16.4 mg/mL”. Further, the MIC in data set [1] (Acinetobacter baumannii) and in data set [2] (read-out: MIC) was 16 µg/mL (≈ 41.7 µM) in each case. Moreover, the results for the time-kill antibacterial effect result in data set [3] (setting [6]) and in data set [3] (monotherapy 48 mg/L) were “no antibacterial effect” and “marginal antibacterial activity”, respectively. Besides, the regrowth in time-kill entry in data set [3] (monotherapy 48 mg/L) is recorded as “regrowth was observed in 4 h”. Further, the “time-kill antibacterial activity, monotherapy (summary)” value in data set [3] and in data set [4] was “weak antibacterial activity” throughout. In addition, the “complete bacterial killing in time-kill” value in data set [4] is listed as “complete killing could not be achieved”.
